For test [1], the target named is Amyloid-beta precursor protein (Homo sapiens) (UniProt P05067). The experiment in a line: Inhibition of HFIP-pretreated amyloid beta (1 to 42) (unknown origin) aggregation at 10 uM after 36 to 48 hrs by thioflavin-T fluorescence assay relative to control. The following applies: time 36-48 hrs.
The target of test [2] is Acetylcholinesterase (Electrophorus electricus) (UniProt O42275). The test can be described thus: Inhibition of electric eel AChE at 10 uM using acetylthiocholine as substrate preincubated for 5 mins followed by substrate addition and measured after 5 mins by Ellman's method relative to control. The settings on record: time 10.0 min.
Chain of Acetylcholinesterase (Electrophorus electricus) (O42275 24-633 limits assumed): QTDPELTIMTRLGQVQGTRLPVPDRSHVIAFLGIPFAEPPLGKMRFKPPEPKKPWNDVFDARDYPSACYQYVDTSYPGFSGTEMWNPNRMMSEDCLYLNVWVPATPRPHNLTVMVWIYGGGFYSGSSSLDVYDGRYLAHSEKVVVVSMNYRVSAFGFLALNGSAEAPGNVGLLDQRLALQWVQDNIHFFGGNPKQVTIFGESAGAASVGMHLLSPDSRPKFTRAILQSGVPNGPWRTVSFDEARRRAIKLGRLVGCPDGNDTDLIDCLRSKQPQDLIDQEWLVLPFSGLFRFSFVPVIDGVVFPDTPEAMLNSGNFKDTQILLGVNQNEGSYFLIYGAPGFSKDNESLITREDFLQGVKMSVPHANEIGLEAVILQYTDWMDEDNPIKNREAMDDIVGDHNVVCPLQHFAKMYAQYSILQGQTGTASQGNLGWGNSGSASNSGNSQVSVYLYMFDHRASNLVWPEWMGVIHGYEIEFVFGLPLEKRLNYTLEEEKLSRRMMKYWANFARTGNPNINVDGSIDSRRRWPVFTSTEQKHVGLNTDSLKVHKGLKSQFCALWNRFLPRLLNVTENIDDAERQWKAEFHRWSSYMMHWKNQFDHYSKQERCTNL
Test [3] concerns the target T1, Cholinesterase (Homo sapiens, UniProt P06276). The test can be described thus: Inhibition of human BuchE at 1 uM using butyrylthiocholine as substrate preincubated for 5 mins followed by substrate addition and measured after 5 mins by Ellman's method relative to control. The following applies: time 10.0 min.
Test [4] has as its target T2, Beta-secretase 1 (Homo sapiens, UniProt P56817). The settings on record: dose 50.0 µM, time 60.0 min.
Test [5] concerns the target Cholinesterase (Equus caballus, UniProt P81908).
Description: Inhibition of equine serum BuChE using butyrylthiocholine as substrate preincubated for 5 mins followed by substrate addition and measured after 5 mins by Ellman's method
Test [6] concerns the target T1, Cholinesterase.
Description: Inhibition of human BuchE using butyrylthiocholine as substrate preincubated for 5 mins followed by substrate addition and measured after 5 mins by Ellman's method
The target of test [7] is T2, Beta-secretase 1.
Test [8] concerns the target Sodium- and chloride-dependent GABA transporter 1 (Mus musculus, UniProt P31648). The experiment in a line: Inhibition of mouse GAT1 expressed in HEK293 cell line assessed as reduction in [3H]GABA uptake incubated for 10 mins. Format: cell-based.
The target of test [9] is T3, GABA transporter 4 (Mus musculus) (UniProt P31650).
T3 sequence (whole entry): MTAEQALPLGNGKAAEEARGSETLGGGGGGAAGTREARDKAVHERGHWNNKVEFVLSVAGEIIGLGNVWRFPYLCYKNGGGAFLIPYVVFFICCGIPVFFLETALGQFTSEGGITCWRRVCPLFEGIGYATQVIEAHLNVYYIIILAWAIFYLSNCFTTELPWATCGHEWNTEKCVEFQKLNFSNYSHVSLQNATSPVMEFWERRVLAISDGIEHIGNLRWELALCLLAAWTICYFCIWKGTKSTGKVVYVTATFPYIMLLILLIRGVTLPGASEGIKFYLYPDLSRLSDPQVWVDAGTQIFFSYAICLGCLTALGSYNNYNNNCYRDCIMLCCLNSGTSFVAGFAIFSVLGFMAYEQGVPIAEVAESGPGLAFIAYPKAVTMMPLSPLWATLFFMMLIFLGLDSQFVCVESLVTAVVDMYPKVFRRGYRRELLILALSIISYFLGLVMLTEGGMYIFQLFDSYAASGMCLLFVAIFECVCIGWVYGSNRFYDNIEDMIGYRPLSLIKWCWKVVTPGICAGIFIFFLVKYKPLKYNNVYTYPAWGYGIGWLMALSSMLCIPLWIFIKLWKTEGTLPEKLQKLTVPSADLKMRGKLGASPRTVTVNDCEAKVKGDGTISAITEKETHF
The test can be described thus: Inhibition of mouse GAT3 expressed in HEK293 cell line assessed as reduction in [3H]GABA uptake at 100 uM incubated for 10 mins relative to control. Format: cell-based.

The target in the next test is T4, GABA transporter 4 (Mus musculus, UniProt P31650).
T4 sequence (P31650 whole entry): T3 sequence (whole entry)
The test can be described thus: Inhibition of mouse GAT4 expressed in HEK293 cell line assessed as reduction in [3H]GABA uptake incubated for 10 mins. Format: cell-based.

For test [10], the target named is Sodium- and chloride-dependent GABA transporter 1 (Mus musculus) (UniProt P31648). The experiment in a line: Inhibition of NO711 binding to mouse GAT1 expressed in HEK cell membranes at 100 uM incubated for 40 mins in presence of NO711 by LC-ESI-MS/MS analysis relative to control. The settings on record: Membrane.
For test [11] the target is unchanged. The test can be described thus: Inhibition of mouse GAT1 expressed in HEK293 cell line assessed as reduction in [3H]GABA uptake at 100 uM incubated for 10 mins relative to control. Format: cell-based.

T2 sequence (P56817 whole entry): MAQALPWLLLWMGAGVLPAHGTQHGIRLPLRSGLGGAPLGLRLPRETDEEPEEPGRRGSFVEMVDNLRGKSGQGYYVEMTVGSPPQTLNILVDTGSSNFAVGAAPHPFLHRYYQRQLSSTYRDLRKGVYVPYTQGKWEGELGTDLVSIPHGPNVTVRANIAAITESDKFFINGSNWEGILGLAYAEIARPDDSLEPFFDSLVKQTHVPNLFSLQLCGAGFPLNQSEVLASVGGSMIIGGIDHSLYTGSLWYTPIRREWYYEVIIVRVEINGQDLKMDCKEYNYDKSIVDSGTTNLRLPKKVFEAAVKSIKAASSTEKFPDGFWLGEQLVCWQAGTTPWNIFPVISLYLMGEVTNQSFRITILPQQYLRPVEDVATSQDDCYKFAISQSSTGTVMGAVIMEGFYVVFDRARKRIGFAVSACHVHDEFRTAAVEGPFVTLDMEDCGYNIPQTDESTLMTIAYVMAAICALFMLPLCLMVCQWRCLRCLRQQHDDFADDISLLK
Chain of Cholinesterase (Equus caballus, UniProt P81908) (P81908 whole entry): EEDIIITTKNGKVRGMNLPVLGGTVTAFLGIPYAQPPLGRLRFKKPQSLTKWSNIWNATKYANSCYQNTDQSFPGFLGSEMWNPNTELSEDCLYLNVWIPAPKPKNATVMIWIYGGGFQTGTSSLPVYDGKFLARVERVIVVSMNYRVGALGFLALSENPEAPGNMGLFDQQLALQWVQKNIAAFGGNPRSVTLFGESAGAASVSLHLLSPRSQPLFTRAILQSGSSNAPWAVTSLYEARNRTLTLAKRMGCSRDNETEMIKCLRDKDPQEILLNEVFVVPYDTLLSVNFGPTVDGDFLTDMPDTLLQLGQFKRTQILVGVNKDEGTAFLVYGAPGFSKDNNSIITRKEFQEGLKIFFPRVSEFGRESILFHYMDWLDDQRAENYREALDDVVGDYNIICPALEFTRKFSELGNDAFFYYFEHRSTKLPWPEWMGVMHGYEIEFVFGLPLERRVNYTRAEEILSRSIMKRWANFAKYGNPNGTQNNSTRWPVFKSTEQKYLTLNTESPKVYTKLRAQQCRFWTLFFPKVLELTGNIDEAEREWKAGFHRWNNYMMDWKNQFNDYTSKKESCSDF
T1 sequence (P06276 whole entry): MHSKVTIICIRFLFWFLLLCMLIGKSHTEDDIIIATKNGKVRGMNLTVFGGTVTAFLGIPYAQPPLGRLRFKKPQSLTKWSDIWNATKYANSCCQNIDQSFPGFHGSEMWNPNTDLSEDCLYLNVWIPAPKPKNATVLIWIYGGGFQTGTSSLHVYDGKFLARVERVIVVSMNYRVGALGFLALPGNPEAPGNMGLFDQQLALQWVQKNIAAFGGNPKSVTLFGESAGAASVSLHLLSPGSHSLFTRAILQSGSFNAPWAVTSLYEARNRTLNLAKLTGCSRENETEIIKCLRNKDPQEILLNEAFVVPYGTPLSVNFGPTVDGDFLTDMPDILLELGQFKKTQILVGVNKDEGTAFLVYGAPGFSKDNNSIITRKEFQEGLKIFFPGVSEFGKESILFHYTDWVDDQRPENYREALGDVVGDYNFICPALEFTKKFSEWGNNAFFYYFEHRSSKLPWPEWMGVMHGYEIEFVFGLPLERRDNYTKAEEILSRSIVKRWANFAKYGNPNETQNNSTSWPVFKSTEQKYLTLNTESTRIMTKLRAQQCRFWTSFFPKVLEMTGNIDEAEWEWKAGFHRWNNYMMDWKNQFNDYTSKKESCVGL
Chain of Amyloid-beta precursor protein (Homo sapiens) (P05067 whole entry): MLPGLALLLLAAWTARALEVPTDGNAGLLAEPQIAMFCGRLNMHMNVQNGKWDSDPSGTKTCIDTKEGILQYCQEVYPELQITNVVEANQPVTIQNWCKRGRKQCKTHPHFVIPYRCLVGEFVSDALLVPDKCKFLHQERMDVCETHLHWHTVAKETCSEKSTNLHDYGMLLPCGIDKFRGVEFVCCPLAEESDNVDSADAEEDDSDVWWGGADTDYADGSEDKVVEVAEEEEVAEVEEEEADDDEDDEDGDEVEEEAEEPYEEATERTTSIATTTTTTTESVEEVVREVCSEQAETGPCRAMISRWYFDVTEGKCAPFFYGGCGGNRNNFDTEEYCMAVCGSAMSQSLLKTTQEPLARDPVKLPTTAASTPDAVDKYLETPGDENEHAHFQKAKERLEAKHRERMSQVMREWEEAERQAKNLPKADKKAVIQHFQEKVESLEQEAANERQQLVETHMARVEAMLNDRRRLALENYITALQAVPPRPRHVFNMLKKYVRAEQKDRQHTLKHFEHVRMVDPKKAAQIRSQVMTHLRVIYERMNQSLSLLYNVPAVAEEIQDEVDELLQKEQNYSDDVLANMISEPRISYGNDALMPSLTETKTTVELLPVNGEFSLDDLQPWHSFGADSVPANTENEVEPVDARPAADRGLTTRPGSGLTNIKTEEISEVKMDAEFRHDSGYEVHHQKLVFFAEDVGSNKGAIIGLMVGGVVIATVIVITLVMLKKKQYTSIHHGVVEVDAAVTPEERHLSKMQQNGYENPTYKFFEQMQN

For the compound `O[C@H](CNCc1ccccc1)[C@H](Cc1ccccc1)NCCC(c1ccccc1)c1ccccc1`, the inhibition in test [1] was 34.7%; in test [2], less than 10%; on Cholinesterase [3], 71.7%; against Beta-secretase 1 [4], 55.3%. This compound also gave an IC50 on Cholinesterase [5] of 1.54 µM.
Take `CC(C)(NC[C@@H](O)[C@H](Cc1ccccc1)NCCC(c1ccccc1)c1ccccc1)c1ccccc1`: the inhibition in test [1] was 34.7%; in [2], less than 10%; against Cholinesterase [3], 53.2%; against Beta-secretase 1 [4], 71.8%. At Cholinesterase [5], it took 1.6 µM to reach half-maximal inhibition (IC50).
The matching figures for `C[C@H](NC[C@@H](O)[C@H](Cc1ccccc1)NCCC(c1ccccc1)c1ccccc1)c1ccccc1`: 34.7%, less than 10%, 72.5%, 62% and 0.98 µM.
Take `CC(C)(C)NC[C@H](O)[C@H](Cc1ccccc1)NC(=O)C(c1ccccc1)c1ccccc1`: the inhibition in test [1] is 20.5%; in [2], less than 10%; against Cholinesterase [3], 35.5%; against Beta-secretase 1 [4], less than 10%. On Cholinesterase [5], this compound registered an IC50 of 0.84 µM.
For `CC(C)(C)c1cccc(CNCC(O)CNCCC(c2ccccc2)c2ccccc2)c1` (centres undefined), in test [2], the inhibition was determined as 21.8%. In addition, the IC50 at Cholinesterase [5] was 2.92 µM; against Cholinesterase [6], 5.74 µM; against Beta-secretase 1 [7], 41.6 µM.
For `COc1cccc(CNC[C@@H](O)[C@H](Cc2ccccc2)NCCC(c2ccccc2)c2ccccc2)c1`, the inhibition was 34.7% in [1], less than 10% in test [2], 55.4% on Cholinesterase [3] and 50.6% at Beta-secretase 1 [4]. Besides, at Cholinesterase [5], the half-maximal inhibitory concentration (IC50) amounted to 2.04 µM.
As for `CC(C)(C)c1ccc(CNC[C@H](O)[C@H](Cc2ccccc2)NC(=O)C(c2ccccc2)c2ccccc2)cc1`, the inhibition in [1] is 20.5%; in test [2], less than 10%. For the same compound, the IC50 on Cholinesterase [5] was determined as 3.44 µM; against Cholinesterase [6], 0.2 µM; against Beta-secretase 1 [7], 2.1 µM.
For `CC(C)(C)c1cccc(CNC[C@@H](O)[C@H](Cc2ccccc2)NC(=O)CC(c2ccccc2)c2ccccc2)c1`, the results for the inhibition (in [1]; in test [2]; on Cholinesterase [3]) were 20.5%, less than 10% and 77.3%, respectively. The results for the IC50 at Cholinesterase [5] and on Beta-secretase 1 [7] were 0.45 µM and 6 µM, respectively.
Regarding `O=C(N[C@@H](Cc1ccccc1)[C@@H](O)CNCc1ccccc1)C(c1ccccc1)c1ccccc1`, the inhibition is less than 10% in test [2]; 40.5% at Cholinesterase [3]; 66.1% against Beta-secretase 1 [4]; 52% in test [9]; 74% in test [10]. The IC50 was 34.7 µM in test [8], 26.9 µM at GABA transporter 4 and 0.23 µM against Cholinesterase [5].
Consider `CC(C)c1cccc(CNC[C@@H](O)[C@H](Cc2ccccc2)NCCC(c2ccccc2)c2ccccc2)c1`, for which the results for the inhibition (in test [1]; in test [2]; on Cholinesterase [3]) were 34.7%, 25.9% and 67.4%, respectively. Moreover, the IC50 turned out to be 1.84 µM on Cholinesterase [5] and 6.6 µM at Beta-secretase 1 [7].
The matching figures for `CC(C)(NC[C@@H](O)[C@H](Cc1ccccc1)NC(=O)CC(c1ccccc1)c1ccccc1)c1ccccc1`: 20.5%, less than 10%, 13.3%, 3.23 µM and 8.9 µM.
On to `O=C(N[C@@H](Cc1ccccc1)[C@@H](O)CNCc1cccc(C(F)(F)F)c1)C(c1ccccc1)c1ccccc1`, for which the inhibition in test [2] is less than 10%. The values for the IC50 against Cholinesterase [5], against Cholinesterase [6] and at Beta-secretase 1 [7] were 0.39 µM, 0.67 µM and 8.6 µM, respectively.
In the case of `O=C(N[C@@H](Cc1ccccc1)[C@H](O)CNCc1ccccc1)C(c1ccccc1)c1ccccc1`, the inhibition is less than 10% in test [2], 34.1% against Cholinesterase [3] and 56.2% at Beta-secretase 1 [4]. Besides, the IC50 against Cholinesterase [5] is 1.51 µM.
As for `COc1ccccc1CNC[C@H](O)[C@H](Cc1ccccc1)NCCC(c1ccccc1)c1ccccc1`, the inhibition was 34.7% in test [1], less than 10% in test [2] and 65.5% on Beta-secretase 1 [4]. Moreover, the results for the IC50 against Cholinesterase [5] and at Cholinesterase [6] were 1.01 µM and 0.8 µM, respectively.
Take `CC(C)(C)NC[C@H](O)[C@H](Cc1ccccc1)NC(=O)CC(c1ccccc1)c1ccccc1`: the inhibition in test [1] was 20.5%; in test [2], less than 10%; against Cholinesterase [3], less than 10%; at Beta-secretase 1 [4] it was less than 10%. It took 11.8 µM to reach half-maximal inhibition against Cholinesterase [5] (IC50).
Regarding `O=C(CC(c1ccccc1)c1ccccc1)N[C@@H](Cc1ccccc1)[C@H](O)CNCc1ccccc1`, the inhibition in test [1] was 20.5%; in test [2], less than 10%; against Cholinesterase [3] it was 62.3%. The compound further yielded an IC50 against Beta-secretase 1 [7] of 35.4 µM.
As to `COc1cccc(CNC[C@@H](O)[C@H](Cc2ccccc2)NC(=O)CC(c2ccccc2)c2ccccc2)c1`, the inhibition in test [1] was 20.5%; in test [2], less than 10%; on Beta-secretase 1 [4], 49%; in test [11] it was 67%; in [9] it was 92%; in [10], 65%. The values for the half-maximal inhibitory concentration (IC50) at GABA transporter 4, against Cholinesterase [5] and against Cholinesterase [6] were 5.89 µM, 1.28 µM and 0.44 µM, respectively.
Turning to `COc1ccccc1CNC[C@H](O)[C@H](Cc1ccccc1)NCC(c1ccccc1)c1ccccc1`, the inhibition is 81.4% in test [1], less than 10% in test [2] and 55.2% against Beta-secretase 1 [4]. The IC50 against Cholinesterase [5] is 0.32 µM; at Cholinesterase [6], 0.58 µM.
In the case of `CC(C)(C)CNC[C@@H](O)[C@H](Cc1ccccc1)NC(=O)CC(c1ccccc1)c1ccccc1`, the inhibition in test [2] is less than 10%; on Cholinesterase [3] it was 46.2%. In addition, the IC50 against Cholinesterase [5] worked out at 2.77 µM; against Beta-secretase 1 [7] it was 33.6 µM.
`COc1ccccc1CNC[C@H](O)[C@H](Cc1ccccc1)NC(=O)CC(c1ccccc1)c1ccccc1`: the values for the inhibition in test [1] and in test [2] were 20.5% and less than 10%, respectively. Besides, the IC50 on Cholinesterase [5] turned out to be 0.33 µM; against Cholinesterase [6] it was 0.35 µM; at Beta-secretase 1 [7], 23.4 µM.
`CC(C)c1cccc(CNC[C@H](O)[C@H](Cc2ccccc2)NC(=O)C(c2ccccc2)c2ccccc2)c1`: the figures for the inhibition (in test [2]; against Cholinesterase [3]) were less than 10% and 74.9%, respectively. In addition, the IC50 at Cholinesterase [5] stood at 0.2 µM; at Beta-secretase 1 [7] it was 3.4 µM.
As for `COc1ccccc1CNC[C@H](O)[C@H](Cc1ccccc1)NC(=O)C(c1ccccc1)c1ccccc1`, the inhibition was 20.5% in test [1]; less than 10% in test [2]; 66.2% against Beta-secretase 1 [4]; 69% in test [9]; 80% in test [10]. Further, the IC50 in [8] is 87.1 µM; on GABA transporter 4, 20 µM; against Cholinesterase [5] it was 0.11 µM; against Cholinesterase [6] it was 0.54 µM.
For `CC(C)(C)NC[C@H](O)[C@H](Cc1ccccc1)NCCC(c1ccccc1)c1ccccc1`, the inhibition in [1] is 34.7%; in test [2], less than 10%; against Cholinesterase [3] it was 68.5%; against Beta-secretase 1 [4] it was 51.3%. Besides, half-maximal inhibition against Cholinesterase [5] (IC50) was put at 0.19 µM.
On to `O[C@H](CNCc1ccccc1)[C@H](Cc1ccccc1)NCC(c1ccccc1)c1ccccc1`, for which the inhibition was less than 10% in test [2] and 42% on Beta-secretase 1 [4]. Besides, the IC50 came to 0.95 µM on Cholinesterase [5] and 0.32 µM against Cholinesterase [6].
In the case of `C[C@H](NC[C@@H](O)[C@H](Cc1ccccc1)NCC(c1ccccc1)c1ccccc1)c1ccccc1`, the values for the inhibition (in [1]; in test [2]; at Beta-secretase 1 [4]) were 34.7%, less than 10% and 53.9%, respectively. Besides, the IC50 on Cholinesterase [5] was found to be 0.95 µM; at Cholinesterase [6], 0.92 µM.

In general, inhibition refers to the relative decrease from the control value, in per cent. The term IC50 denotes the midpoint of a concentration-inhibition curve.

Values taken from ChEMBL document CHEMBL4819069, “Discovery of multifunctional anti-Alzheimer's agents with a unique mechanism of action including inhibition of the enzyme butyrylcholinesterase and γ-aminobutyric acid transporters” (Eur J Med Chem, 2021).
